Data published in patent US20240391862A1, “(1,4,5-TRISUBSTITUTED-1H-PYRAZOL-3-YL)OXY-2-ALKOXY ALKYL ACIDS AND THEIR DERIVATIVES, THEIR SALTS AND THEIR USE AS HERBICIDAL AGENTS” (Bayer AKtiengesellschaft, priority 2021, published 2024).

Test system: various unwanted plants
Assay: Pre-emergence effect against various unwanted plants (PE): comparative test of I-01 with compounds from WO2020/245044 (Tables 40a, 40b) and summary statements
Format: in vivo
Source text: Seeds of monocotyledonous and dicotyledonous weed plants and crop plants are placed in plastic or organic planting pots and covered with soil. The compounds of the invention, formulated in the form of wettable powders (WP) or as emulsion concentrates (EC), are then applied to the surface of the covering soil as aqueous suspension or emulsion with addition of 0.5% additive at a water application rate equivalent to 600 l/ha. After the treatment, the pots are placed in a greenhouse and kept under good growth conditions for the trial plants. After about 3 weeks, the effect of the preparations is scored visually in comparison with untreated controls as percentages. For example, 100% activity=the plants have died, 0% activity=like control plants. Tables 40a and 40b below show the effects of the inventive compound (I-01) with structurally similar compounds (from WO2020/245044) on various harmful plants at an application rate corresponding to 320 g/ha or less, which have been obtained by the trial procedure specified hereinafter. The inventive compound (I-01) differs here by variance of a significant structural feature from the structurally similar compound with regard to the R^2 radical. Seeds of monocotyledonous and dicotyledonous weed plants and crop plants are placed in plastic or organic planting pots and covered with soil. The compounds of the invention, formulated in the form of wettable powders (WP) or as emulsion concentrates (EC), are then applied to the surface of the covering soil as aqueous suspension or emulsion with addition of 0.5% additive at a water application rate equivalent to 600 l/ha. After the treatment, the pots are placed in a greenhouse and kept under good growth conditions for the trial plants. After about 3 weeks, the effect of the preparations is scored visually in comparison with untreated controls as percentages. For example, 100% activity=the plants have died, 0% activity=like control plants. Effects/crop compatibilities of selected compounds (Table 39) on various harmful plants at an application rate corresponding to 80 to 320 g/ha that have been obtained by the trial procedure specified hereinabove are shown in Tables 40a and 40b below.

CCOC(=O)C(OCC)Oc1nn(-c2ccccc2F)c(-c2ccc(F)nc2)c1Br (racemic) [Example I-01, Ethyl (2RS)-{[4-bromo-1-(2-fluorophenyl)-5-(6-fluoropyridin-3-yl)-1H-pyrazol-3-yl]oxy}(ethoxy)acetate]
Pre-emergence effect, Effect %, ALOMY (ALOMY, 320 g/ha, comparative test): 90%
Pre-emergence effect, Effect %, ECHCG (80 g/ha, comparative test): 70%
Pre-emergence effect, Effect %, ECHCG (320 g/ha, comparative test): 100%
Pre-emergence effect, Effect %, LOLRI (80 g/ha, comparative test): 90%
Pre-emergence effect, Effect %, LOLRI (320 g/ha, comparative test): 100%
Pre-emergence effect, Effect %, MATIN (80 g/ha, comparative test): 90%
Pre-emergence effect, Effect %, MATIN (320 g/ha, comparative test): 90%
Pre-emergence effect, Effect %, POLCO (POLCO, 80 g/ha, comparative test): 80%
Pre-emergence effect, Effect %, SETVI (SETVI, 320 g/ha, comparative test): 100%
herbicidal efficacy by comparison to the structurally similar compounds (Tables 40a and 40b) (different harmful plants, 320 g or less per hectare, vs compounds from WO2020/245044): distinctly improved herbicidal efficacy
